Measurements taken from US20250064846A1, “TREATMENT AND PREVENTION OF TRIGEMINAL NEURALGIA” (THE JOHNS HOPKINS UNIVERSITY, priority 2022, published 2025).

Tested on: NRF2 target genes
Assay: RNA-sequencing of primary human dermal fibroblasts
Format: cell-based
Conditions: 48 hours, 0.25 μM JQ-1
Protocol: RNA-sequencing RNA sequencing was performed as previously described (See Shin, J. Y. et al. Sci Transl Med 11, eaaw0790 (2019)). To assess the transcriptional signature of JQ-1, total RNA was isolated from three independent human fibroblast lines after 48 hours of treatment with DMSO or 0.25 μM JQ-1 using TRizol and RNeasy isolation columns (Qiagen) as per the manufacturer's instructions. DNA was digested with DNase treatment. All samples had RNA integrity numbers 9.60 or higher as measured with an Agilent 2100 Bioanalyzer. mRNA was enriched by poly-A selection, prepped using an Illumina TruSeq mRNA sample preparation kit, and sequenced by Illumina HiSeq 2000.
Differential Gene Expression and Pathway Enrichment Analyses Differential gene expression analysis was performed using BioJupies 126.

For `Cc1sc2c(c1C)C(c1ccc(Cl)cc1)=N[C@@H](CC(=O)OC(C)(C)C)c1nnc(C)n1-2` [JQ-1, (S)-tert-butyl 2-(4-(4-chlorophenyl)-2,3,9-trimethyl-6H-thieno[3,2-f][1,2,4]triazolo[4,3-a][1,4]diazepin-6-yl)acetate], the “expression of canonical NRF2 target genes (NQO1, FTL, PRDX1, TXN, EGR1)” value was “upregulated a number of canonical NRF2 target genes” and the “rank of the NRF2 pathway in gene ontology and genetic network analyses” value was “second most upregulated pathway”.
